{"source": "patent US7816398B2", "about": "“Fatty alcohol drug conjugates” (Luitpold Pharmaceuticals, Inc., priority 2001, dated 2010)", "origin": "cited, not measured here", "conditions": "relative to irinotecan", "data": [{"compound": "CCc1c2c(nc3ccc(O)cc13)-c1cc3c(c(=O)n1C2)COC(=O)[C@]3(O)CC", "note": "[SN-38]", "values": [{"measurement": "times more potent than Irinotecan", "result": "~100", "unit": "times"}]}]}
